In BindingDB's records for patent US12297186 (Agomab Spain, S.L.U., 2025):

Biological target: T1, TGF-beta receptor type-1 (Homo sapiens, UniProt P36897)
T1 sequence (P36897 whole entry): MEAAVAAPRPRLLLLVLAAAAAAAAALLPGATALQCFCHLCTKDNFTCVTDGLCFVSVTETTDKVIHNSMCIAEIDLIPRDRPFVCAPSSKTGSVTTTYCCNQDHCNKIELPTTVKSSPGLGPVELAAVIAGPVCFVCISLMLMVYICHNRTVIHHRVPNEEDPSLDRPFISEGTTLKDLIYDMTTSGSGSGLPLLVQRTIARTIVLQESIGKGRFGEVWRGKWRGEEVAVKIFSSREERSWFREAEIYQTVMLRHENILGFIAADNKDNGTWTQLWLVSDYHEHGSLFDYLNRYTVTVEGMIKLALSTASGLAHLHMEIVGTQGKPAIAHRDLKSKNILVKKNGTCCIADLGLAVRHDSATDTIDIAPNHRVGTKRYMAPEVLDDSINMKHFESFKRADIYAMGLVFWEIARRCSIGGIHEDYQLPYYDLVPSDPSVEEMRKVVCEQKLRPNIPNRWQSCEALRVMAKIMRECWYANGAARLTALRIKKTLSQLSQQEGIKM
Assay: In Vitro Enzyme Assay
Method: Human TGFβl R-1 inhibition experiments were carried out in a white 384-microplate low flange (Corning 3572) with ADP-Glo kinase Assay Kit (Promega V9101) and TGβR-1 Kinase Enzyme System (Promega V4092). […] The reaction mixture was incubated in gentle shaking for 120 min at RT, after incubation of 10 μL of ADP-Glo Reagent was added and incubated in gentle shaking for 40 min at RT. 20 μL of Kinase Detection Reagent was added and plate was incubated in gentle shaking for 30 min at RT. Luminiscence (1000 ms) was measured in Perkin Elmer EnSpire Multimode plate reader.

IC50	SMILES
in the range around 450 nM	O=C(Cn1cc(-c2ccnc3ccccc23)c(-c2ccccn2)n1)NCC1=CC(F)CC=C1 (centres undefined) [US12297186, Example 11]
in the range around 450 nM	O=C(Cn1cc(-c2ccnc3ccccc23)c(-c2ccccn2)n1)NCC1=CC(Cl)CC=C1 (centres undefined) [US12297186, Example 12]
in the range around 450 nM	CC1C=C(CNC(=O)Cn2cc(-c3ccnc4ccccc34)c(-c3ccccn3)n2)C=CC1 (centres undefined) [US12297186, Example 10]
in the range around 450 nM	N#CC1C=C(CNC(=O)Cn2cc(-c3ccnc4ccccc34)c(-c3ccccn3)n2)C=CC1 (centres undefined) [US12297186, Example 13]
